Data taken from BigSolDB 2.1.

CC1=NN(c2ccccc2)C(=O)C1
solubility (mole fraction)
Settings	in 2,4-dimethylphenol	in DMSO	in NMP	in diglyme	in morpholine-4-carbaldehyde	in tetraglyme	in triglyme
298.15 K	0.0188	0.0758	0.0383	0.0205	0.0111	0.0463	0.0153
303.15 K	0.0282	0.122	0.0496	0.0269	0.0146	0.0863	0.022
308.15 K	0.0408	0.201	0.0694	0.0333	0.0176	0.131	0.0311
313.15 K	0.0565	0.298	0.0861	0.0416	0.0217	0.212	0.0457
